{
  "source": "paper PMC7206119",
  "about": "“RIP1 inhibition blocks inflammatory diseases but not tumor growth or metastases” (Cell Death and Differentiation, 2019)",
  "assay_in_all_cases": "biochemical",
  "parameters_in_all_cases": "DiscoverX kinase panel, active-site competition binding (KINOMEscan type), percent of control at one concentration",
  "conditions_in_all_cases": "competition binding, percent of control",
  "key": {"PDGFRB": {"target": "PDGFRB (Homo sapiens, UniProt P09619)"}, "TESK1": {"target": "TESK1 (Homo sapiens, UniProt Q15569)"}, "RIOK2": {"target": "RIOK2 (Homo sapiens, UniProt Q9BVS4)"}, "ZAP70": {"target": "ZAP70 (Homo sapiens, UniProt P43403)"}, "ERBB4": {"target": "ERBB4 (Homo sapiens, UniProt Q15303)", "sequence (Q15303 whole entry)": "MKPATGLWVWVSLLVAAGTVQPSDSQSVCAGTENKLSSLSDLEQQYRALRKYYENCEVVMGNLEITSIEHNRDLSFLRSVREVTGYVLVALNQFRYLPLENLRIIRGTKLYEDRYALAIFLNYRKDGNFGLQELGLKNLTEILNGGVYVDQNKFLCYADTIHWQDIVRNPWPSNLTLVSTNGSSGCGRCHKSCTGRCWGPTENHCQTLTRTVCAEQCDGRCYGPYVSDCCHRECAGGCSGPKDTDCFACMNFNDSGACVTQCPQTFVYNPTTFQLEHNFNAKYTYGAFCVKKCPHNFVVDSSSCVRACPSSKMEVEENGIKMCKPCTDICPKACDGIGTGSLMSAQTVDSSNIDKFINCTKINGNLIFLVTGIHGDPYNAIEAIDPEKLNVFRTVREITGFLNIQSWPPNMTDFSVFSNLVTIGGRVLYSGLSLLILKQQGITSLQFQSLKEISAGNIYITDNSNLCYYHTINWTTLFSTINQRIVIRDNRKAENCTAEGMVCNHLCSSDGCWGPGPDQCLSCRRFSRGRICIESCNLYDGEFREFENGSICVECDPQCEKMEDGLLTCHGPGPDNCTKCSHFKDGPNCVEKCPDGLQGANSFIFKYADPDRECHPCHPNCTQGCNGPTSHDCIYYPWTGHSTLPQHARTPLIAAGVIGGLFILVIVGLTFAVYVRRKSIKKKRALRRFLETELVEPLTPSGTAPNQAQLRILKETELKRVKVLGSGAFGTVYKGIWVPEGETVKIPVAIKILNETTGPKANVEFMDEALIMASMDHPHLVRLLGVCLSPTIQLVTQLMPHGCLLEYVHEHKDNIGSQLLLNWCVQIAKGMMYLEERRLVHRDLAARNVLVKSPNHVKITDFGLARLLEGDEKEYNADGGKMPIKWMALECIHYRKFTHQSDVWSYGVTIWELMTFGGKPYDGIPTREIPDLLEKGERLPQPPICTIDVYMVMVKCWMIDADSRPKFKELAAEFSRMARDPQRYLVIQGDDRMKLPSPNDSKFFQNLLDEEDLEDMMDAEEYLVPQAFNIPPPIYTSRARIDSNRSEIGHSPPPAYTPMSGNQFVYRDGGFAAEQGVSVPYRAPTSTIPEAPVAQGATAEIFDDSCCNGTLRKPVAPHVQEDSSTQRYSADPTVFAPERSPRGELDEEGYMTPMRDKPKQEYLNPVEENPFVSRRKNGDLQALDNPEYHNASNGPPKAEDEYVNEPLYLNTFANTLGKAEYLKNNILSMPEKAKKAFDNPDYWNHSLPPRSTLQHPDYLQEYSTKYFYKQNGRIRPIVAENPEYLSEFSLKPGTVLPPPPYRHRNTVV"}, "HPK1": {"target": "T1, HPK1 (Homo sapiens, UniProt Q92918)", "T1 construct": "gene MAP4K1"}, "PKN2": {"target": "PKN2 (Homo sapiens, UniProt Q16513)", "sequence (Q16513 whole entry)": "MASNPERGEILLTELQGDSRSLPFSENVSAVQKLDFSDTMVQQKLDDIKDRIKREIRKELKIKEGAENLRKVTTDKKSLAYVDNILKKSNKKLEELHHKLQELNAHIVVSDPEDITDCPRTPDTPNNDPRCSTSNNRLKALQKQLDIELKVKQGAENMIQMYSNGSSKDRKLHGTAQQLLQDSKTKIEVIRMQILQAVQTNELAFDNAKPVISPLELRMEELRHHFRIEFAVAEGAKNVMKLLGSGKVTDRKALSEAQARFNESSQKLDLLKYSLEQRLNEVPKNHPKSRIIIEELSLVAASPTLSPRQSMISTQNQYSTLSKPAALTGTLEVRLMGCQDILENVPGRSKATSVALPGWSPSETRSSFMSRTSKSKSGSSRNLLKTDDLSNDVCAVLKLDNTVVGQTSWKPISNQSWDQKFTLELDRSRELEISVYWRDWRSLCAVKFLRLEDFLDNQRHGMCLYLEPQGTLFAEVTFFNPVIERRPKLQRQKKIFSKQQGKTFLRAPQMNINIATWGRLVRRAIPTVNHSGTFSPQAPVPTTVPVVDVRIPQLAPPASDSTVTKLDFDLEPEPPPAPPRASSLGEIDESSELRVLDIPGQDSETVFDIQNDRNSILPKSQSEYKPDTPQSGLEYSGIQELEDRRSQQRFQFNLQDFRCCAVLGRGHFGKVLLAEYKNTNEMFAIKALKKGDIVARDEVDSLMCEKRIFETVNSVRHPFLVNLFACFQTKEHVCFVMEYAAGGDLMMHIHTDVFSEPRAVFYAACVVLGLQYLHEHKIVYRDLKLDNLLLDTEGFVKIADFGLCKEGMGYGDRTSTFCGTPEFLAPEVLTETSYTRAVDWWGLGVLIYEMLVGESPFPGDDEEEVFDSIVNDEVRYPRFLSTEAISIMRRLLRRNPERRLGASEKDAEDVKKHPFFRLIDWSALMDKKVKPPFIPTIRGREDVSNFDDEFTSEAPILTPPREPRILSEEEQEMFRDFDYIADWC"}, "NEK4": {"target": "NEK4 (Homo sapiens, UniProt P51957)"}, "ACVR1": {"target": "ACVR1 (Homo sapiens, UniProt Q04771)"}, "ASK2": {"target": "T2, ASK2 (Homo sapiens, UniProt O95382)", "T2 construct": "gene MAP3K6"}, "NEK6": {"target": "NEK6 (Homo sapiens, UniProt Q9HC98)", "sequence (Q9HC98 whole entry)": "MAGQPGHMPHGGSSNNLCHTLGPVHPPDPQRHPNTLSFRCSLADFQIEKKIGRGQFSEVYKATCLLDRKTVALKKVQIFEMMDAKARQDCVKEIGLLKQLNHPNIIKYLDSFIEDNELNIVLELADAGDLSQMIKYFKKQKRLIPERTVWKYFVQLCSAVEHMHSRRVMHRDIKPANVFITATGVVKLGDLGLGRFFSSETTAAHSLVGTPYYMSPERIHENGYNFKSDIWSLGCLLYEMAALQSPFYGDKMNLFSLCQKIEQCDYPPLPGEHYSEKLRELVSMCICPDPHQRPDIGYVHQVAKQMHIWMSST"}, "CTK": {"target": "T3, CTK (Homo sapiens, UniProt P42679)", "T3 construct": "gene MATK"}, "AAK1": {"target": "AAK1 (Homo sapiens, UniProt Q2M2I8)"}, "CDK7": {"target": "CDK7 (Homo sapiens, UniProt P50613)"}, "PIK3CA(H1047Y)": {"target": "PIK3CA(H1047Y) (Homo sapiens, UniProt P42336, H1047Y)", "sequence (P42336 whole entry H1047Y)": "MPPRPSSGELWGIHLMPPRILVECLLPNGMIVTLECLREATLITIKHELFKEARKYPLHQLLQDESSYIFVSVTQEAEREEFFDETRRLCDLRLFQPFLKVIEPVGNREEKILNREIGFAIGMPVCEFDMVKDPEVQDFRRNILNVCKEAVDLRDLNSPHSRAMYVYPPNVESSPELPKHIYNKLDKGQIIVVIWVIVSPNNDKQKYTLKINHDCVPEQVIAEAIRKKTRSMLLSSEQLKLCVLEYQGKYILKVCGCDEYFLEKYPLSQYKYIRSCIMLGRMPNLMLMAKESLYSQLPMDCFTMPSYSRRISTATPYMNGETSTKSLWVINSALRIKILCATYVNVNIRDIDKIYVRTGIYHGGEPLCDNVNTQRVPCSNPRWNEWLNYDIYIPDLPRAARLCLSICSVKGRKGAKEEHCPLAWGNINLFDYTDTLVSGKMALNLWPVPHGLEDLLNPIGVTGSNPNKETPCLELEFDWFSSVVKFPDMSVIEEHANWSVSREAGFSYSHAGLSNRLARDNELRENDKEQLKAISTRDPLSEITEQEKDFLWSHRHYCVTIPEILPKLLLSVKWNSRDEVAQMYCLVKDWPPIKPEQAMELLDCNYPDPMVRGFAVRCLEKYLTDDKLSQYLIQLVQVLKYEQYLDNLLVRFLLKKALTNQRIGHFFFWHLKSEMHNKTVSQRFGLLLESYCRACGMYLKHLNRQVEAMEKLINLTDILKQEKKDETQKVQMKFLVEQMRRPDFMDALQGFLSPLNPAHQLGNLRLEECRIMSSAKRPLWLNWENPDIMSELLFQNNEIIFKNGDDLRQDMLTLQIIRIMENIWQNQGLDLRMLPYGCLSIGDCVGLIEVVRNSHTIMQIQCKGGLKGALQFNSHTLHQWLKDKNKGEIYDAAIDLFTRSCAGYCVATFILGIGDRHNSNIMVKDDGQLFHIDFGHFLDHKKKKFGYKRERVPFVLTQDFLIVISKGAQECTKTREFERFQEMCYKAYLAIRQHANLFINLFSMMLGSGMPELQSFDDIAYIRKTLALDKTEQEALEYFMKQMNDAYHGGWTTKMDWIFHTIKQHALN"}, "ADCK3": {"target": "T4, ADCK3 (Homo sapiens, UniProt Q8NI60)", "T4 construct": "gene COQ8A"}, "[1]": {"target": "EGFR(L747-S752del, P753S) (Homo sapiens, UniProt P00533, DEL747-752/P753S)"}, "STK35": {"target": "STK35 (Homo sapiens, UniProt Q8TDR2)"}, "SNARK": {"target": "T5, SNARK (Homo sapiens, UniProt Q9H093)", "T5 construct": "gene NUAK2", "T5 sequence (Q9H093 whole entry)": "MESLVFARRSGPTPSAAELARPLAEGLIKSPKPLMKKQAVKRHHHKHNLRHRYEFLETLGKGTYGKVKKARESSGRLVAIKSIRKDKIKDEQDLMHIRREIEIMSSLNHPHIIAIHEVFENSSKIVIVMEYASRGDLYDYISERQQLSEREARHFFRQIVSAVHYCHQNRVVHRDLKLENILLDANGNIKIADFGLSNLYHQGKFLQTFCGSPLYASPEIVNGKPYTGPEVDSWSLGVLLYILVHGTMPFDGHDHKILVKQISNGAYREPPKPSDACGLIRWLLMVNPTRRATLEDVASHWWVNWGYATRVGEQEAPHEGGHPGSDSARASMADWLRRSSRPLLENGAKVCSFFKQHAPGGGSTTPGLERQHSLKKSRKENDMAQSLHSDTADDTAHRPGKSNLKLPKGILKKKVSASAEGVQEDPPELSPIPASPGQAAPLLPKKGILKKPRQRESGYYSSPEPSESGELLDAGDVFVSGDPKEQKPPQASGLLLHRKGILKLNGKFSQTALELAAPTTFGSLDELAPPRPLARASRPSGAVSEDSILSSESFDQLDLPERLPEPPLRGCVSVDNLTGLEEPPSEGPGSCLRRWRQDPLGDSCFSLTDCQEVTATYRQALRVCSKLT"}, "KIT": {"target": "KIT (Homo sapiens, UniProt P10721)"}, "BRSK1": {"target": "BRSK1 (Homo sapiens, UniProt Q8TDC3)", "sequence (Q8TDC3 whole entry)": "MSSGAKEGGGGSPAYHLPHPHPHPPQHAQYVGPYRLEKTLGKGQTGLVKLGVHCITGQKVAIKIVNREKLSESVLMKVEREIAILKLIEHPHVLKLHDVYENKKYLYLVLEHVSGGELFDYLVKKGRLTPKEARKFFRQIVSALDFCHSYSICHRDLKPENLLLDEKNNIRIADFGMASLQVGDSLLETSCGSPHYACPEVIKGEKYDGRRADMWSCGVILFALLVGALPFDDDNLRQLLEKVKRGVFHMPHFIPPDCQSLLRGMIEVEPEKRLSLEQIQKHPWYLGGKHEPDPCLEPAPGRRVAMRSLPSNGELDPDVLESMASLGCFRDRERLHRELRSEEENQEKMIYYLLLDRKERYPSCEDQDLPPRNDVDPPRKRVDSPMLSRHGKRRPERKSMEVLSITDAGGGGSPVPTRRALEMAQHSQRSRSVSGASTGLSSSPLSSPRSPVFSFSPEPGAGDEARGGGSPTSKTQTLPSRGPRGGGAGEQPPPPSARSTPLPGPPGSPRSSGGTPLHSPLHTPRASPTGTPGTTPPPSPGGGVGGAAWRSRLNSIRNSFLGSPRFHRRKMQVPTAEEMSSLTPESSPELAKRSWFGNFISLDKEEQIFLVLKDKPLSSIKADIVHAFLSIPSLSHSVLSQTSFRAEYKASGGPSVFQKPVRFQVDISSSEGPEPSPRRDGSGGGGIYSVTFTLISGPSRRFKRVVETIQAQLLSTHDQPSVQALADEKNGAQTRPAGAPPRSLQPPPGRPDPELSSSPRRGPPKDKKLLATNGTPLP"}},
  "data": [
    {"smiles": "COc1cc2c(cn1)N(C)C(=O)[C@@H](NC(=O)c1nc3n(n1)[C@H](c1ccccc1)CC3)CC2", "note": "[GNE684, (S)-N-((S)-7-methoxy-1-methyl-2-oxo-2,3,4,5-tetrahydro-1H-pyrido[3,4-b]azepin-3-yl)-5-phenyl-6,7-dihydro-5H-pyrrolo[1,2-b][1,2,4]triazole-2-carboxamide]", "values": [
      {"measurement": "remaining binding at 10 µM", "setting": "PDGFRB", "result": 94, "unit": "%"},
      {"measurement": "remaining binding at 10 µM", "setting": "TESK1", "result": 94, "unit": "%"},
      {"measurement": "remaining binding at 10 µM", "setting": "RIOK2", "result": 28, "unit": "%"},
      {"measurement": "remaining binding at 10 µM", "setting": "ZAP70", "result": 100, "unit": "%"},
      {"measurement": "remaining binding at 10 µM", "setting": "ERBB4", "result": 85, "unit": "%"},
      {"measurement": "remaining binding at 10 µM", "setting": "HPK1", "result": 98, "unit": "%"},
      {"measurement": "remaining binding at 10 µM", "setting": "PKN2", "result": 84, "unit": "%"},
      {"measurement": "remaining binding at 10 µM", "setting": "NEK4", "result": 100, "unit": "%"},
      {"measurement": "remaining binding at 10 µM", "setting": "ACVR1", "result": 100, "unit": "%"},
      {"measurement": "remaining binding at 10 µM", "setting": "ASK2", "result": 98, "unit": "%"},
      {"measurement": "remaining binding at 10 µM", "setting": "NEK6", "result": 85, "unit": "%"},
      {"measurement": "remaining binding at 10 µM", "setting": "CTK", "result": 93, "unit": "%"},
      {"measurement": "remaining binding at 10 µM", "setting": "AAK1", "result": 100, "unit": "%"},
      {"measurement": "remaining binding at 10 µM", "setting": "CDK7", "result": 75, "unit": "%"},
      {"measurement": "remaining binding at 10 µM", "setting": "PIK3CA(H1047Y)", "result": 93, "unit": "%"},
      {"measurement": "remaining binding at 10 µM", "setting": "ADCK3", "result": 98, "unit": "%"},
      {"measurement": "remaining binding at 10 µM", "setting": "[1]", "result": 100, "unit": "%"},
      {"measurement": "remaining binding at 10 µM", "setting": "STK35", "result": 100, "unit": "%"},
      {"measurement": "remaining binding at 10 µM", "setting": "SNARK", "result": 100, "unit": "%"},
      {"measurement": "remaining binding at 10 µM", "setting": "KIT", "result": 95, "unit": "%"},
      {"measurement": "remaining binding at 10 µM", "setting": "BRSK1", "result": 100, "unit": "%"}
    ]}
  ]
}
